The subject of assay [1] is right ventricle gene expression. Kind of assay: Right ventricle gene expression, Affymetrix Mouse Gene 2.0 arrays (Example IV). The class given is in vivo, mice. Conditions: sham surgery mice, 25 mg/kg/day, 2 weeks. The procedure:
FVB/N mice or mice with a GFP macrophage-specific lineage tracing marker (LysM-Cre) underwent pulmonary banding to directly increase load stress (or sham surgery for controls), and starting the following day received either vehicle or the thromboxane receptor antagonist Ifetroban sodium in their drinking water (25 mg/kg/day). After 2 weeks, noninvasive hemodynamics were obtained by transthoracic echocardiography and invasive hemodynamics were obtained by pressure-volume catheterization of the right heart prior to sacrifice. Hearts were assessed for fibrosis and macrophage infiltration. RNA from right ventricles were isolated and used for unbiased discovery of altered gene expression using Affymetrix Mouse Gene 2.0 arrays performed on four groups (banded or sham). LysM-Cre mouse hearts were flash-frozen whole, cross-sectioned, and assessed by microscopy for fibrosis and macrophage infiltration. Differences between groups were assessed by ANOVA and t-tests. Correlations were assessed by Spearman correlation.

In assay [2] the test system is RV monocytes / macrophages. Kind of assay: Cardiac monocytes: LysM-Cre lineage tracing and flow cytometry of RV (Example VII). In kind it is in vivo, mice. Conditions: LysM-Cre reporter mice, aspirin. The procedure:
Both male and female age-matched C57Bl/6 or FVB/NJ mice, obtained by in-house breeding, were used for pulmonary artery banding. LysM-GFP mice were obtained by cross-breeding LysM-Cre×mTomato/GFP reporter mice B6.129P2-Lyz2tm1(cre)Ifo/J (a gift from Tim Blackwell)×Gt(ROSA)26Sortm4(ACTB-tdTomato, -EGFP)Luo (JAX stock #007676). The day following surgery, mice were given either 25 mg/kg/day IFETROBAN (Cumberland Pharmaceuticals Inc., Nashville, TN) in drinking water or normal drinking water (vehicle) for 2 weeks or 6 weeks prior to hemodynamic evaluation. Mice were weighed and water was changed once a week.
TP receptors are also expressed on monocytes, and blockade of these receptors may have immune-specific effects. To determine whether the decrease in fibrosis seen with TP receptor inhibition was due to decreased macrophage infiltration or proliferation in the RV, PAB on LysM-Cre mice expressing eGFP under the LysozymeM promoter was performed, where all cells that have ever had monocyte lineage are labeled with GFP, even if they have later differentiated. […] Transgenic LysM-Cre×flox-mTomato-flox eGFP mice were used to label cells of monocyte derivation in the RV. These mice express a fluorescent red, except in cells derived from monocyte lineage (even if they have later differentiated), which express a fluorescent green. […] Flow sorting of whole RV for circulating markers found a non-significant trend towards an increase in PA-banded mice that was blocked by ifetroban.
(In general: Flow cytometry measures light scatter and fluorescence of single cells or particles in a stream.)

Assay [3] relates to pulmonary artery banding (PAB) model of right ventricular pressure overload. Kind of assay: PAB model of right ventricular pressure overload: hemodynamics, echocardiography, histology (Example VII). In kind it is in vivo. The settings on record: PAB mice.

Structures can show the parent of a compound that is named as a salt.

As for `CCCCCNC(=O)c1coc([C@H]2[C@@H](Cc3ccccc3CCC(=O)O)[C@@H]3CC[C@H]2O3)n1` [Ifetroban sodium, [1S-(1α,2α,3α,4α)]-2-[[3-[4-[(Pentylamino)carbonyl]-2-oxazolyl]-7-oxabicyclo[2.2.1]hept-2-yl]methyl]-benzenepropanoic acid, monosodium salt], the “the same expression changes in the sham surgery group” value in assay [1] is reported as “not found in the sham surgery group”.
For the compound `CC(=O)Oc1ccccc1C(=O)O` [aspirin], the entries for the “number of RV monocytes / green (monocyte lineage) cells after PAB” value in assay [2] and in assay [2] (listed as ASA) were “appeared to increase the number of RV monocytes” and “significantly increases numbers of green cells”, respectively. Moreover, the “replication of the ifetroban results (fibrosis, hypertrophy, TSP-4, TGF-beta)” value in assay [3] (low-dose aspirin) is on record as “failed to replicate these results”. Further, in assay [3] (oral aspirin 10 mg/kg/day, 2 weeks), the “RV fibrosis (Masson's trichrome)” value is recorded as “failed to prevent fibrosis”.

The values above are taken from patent publication US12161632B2, “Compositions and methods of treating cardiac fibrosis with ifetroban” (Cumberland Pharmaceuticals Inc., priority 2014, dated 2024).
